Laboratory results from paper PMC6094047 (Antiviral Research, 2018).
Read-outs that look alike come from different tables or passages of the source.

Legend:
[1] = tested on: A(H3N2) virus neuraminidase (NA); type: biochemical, influenza A(H3N2) virus
[2] = tested on: B/Yamagata-lineage virus neuraminidase (NA); parameters: method as in Gubareva et al., 2017a; Monto et al., 2006; conditions: ref Gubareva et al., 2017a, Monto et al., 2006, cited from earlier work
influenza [3] = tested on: influenza; parameters: method as in Rossignol, 2018; conditions: vs placebo, twice daily for 5 days, subjects enrolled within 36 h of symptom onset and followed up daily; ref Rossignol, 2018; cited from earlier work
[4] = tested on: B/Victoria-lineage virus neuraminidase (NA); conditions: cited from earlier work
uncomplicated influenza [5] = tested on: uncomplicated influenza; parameters: method as in Hayden, 2018; conditions: phase III, given <48 h after onset of symptoms; ref Hayden, 2018; cited from earlier work
uncomplicated influenza [6] = conditions: phase III, ref Epstein, 2017; cited from earlier work
influenza [7] = tested on: influenza; parameters: method as in Haffizula et al., 2014; conditions: 600 mg twice daily for five days, ref Haffizula et al., 2014, cited from earlier work
[8] = frequency of reported adverse events similar to placebo; cited from earlier work
[9] = B/Victoria-lineage NA A245T, ref Leang et al., 2014
[10] = B/Victoria-lineage NA D197N, ref Gubareva et al., 1998, 2017b, Ison et al., 2006, Mishin et al., 2005

**Q.** For `[H]/N=C(\N)N[C@H]1C=C(C(=O)O)O[C@@H]([C@H](OC)[C@H](O)CO)[C@@H]1NC(C)=O` [Laninamivir], which “IC50 fold-change compared to reference median IC50 values” [1] is on record?
**A.** Its value is 17 fold.

**Q.** With `CCOC(=O)C1=C[C@@H](OC(CC)CC)[C@H](NC(C)=O)[C@@H](N)C1` [Oseltamivir] as the molecule, how does the “fold increase in IC50” value ([2]; B/Yamagata-lineage NA I221T) read?
**A.** The value was “greater than 5 fold”.

**Q.** What about the “improvement in median time to alleviation of symptoms” value (influenza [3]) of the same molecule?
**A.** Its value is 50 h.

**Q.** What about the “inhibition phenotype associated with NA AAS (NI/RI/HRI)” value (shortened to “inhibition phenotype associated”) [4, 9] of the same molecule?
**A.** Its value is “RI (type B viruses 5- to 50-fold)”.

**Q.** And the “inhibition phenotype associated” value [4, 10]?
**A.** The value was “RI (type B viruses 5- to 50-fold)”.

**Q.** Which “IC50 fold-change compared to reference median IC50 values” [1] does the source give for `CCC(CC)[C@H](NC(C)=O)[C@@H]1[C@H](O)[C@@H](C(=O)O)C[C@H]1N=C(N)N` [Peramivir] here?
**A.** Its value is 5.3 fold.

**Q.** What about the “inhibition phenotype (NI/RI/HRI)” value [1] of the same molecule?
**A.** Its value is “NI (key: normal inhibition (NI) (type A viruses <10-fold; reduced inhibition (RI) (type A viruses 10- to 100-fold; highly reduced inhibition (HRI) (type A viruses >100-fold)”.

**Q.** And the “inhibition phenotype associated” value ([2]; B/Yamagata-lineage NA I221V and I221T)?
**A.** The value was “RI (type B viruses 5- to 50-fold)”.

**Q.** What about the “inhibition phenotype associated” value [4, 9] of the same molecule?
**A.** The value was “RI (type B viruses 5- to 50-fold)”.

**Q.** What about the “inhibition phenotype associated” value [4, 10] of the same molecule?
**A.** The value was “RI (type B viruses 5- to 50-fold)”.

**Q.** What about the “inhibition phenotype associated” value ([4]; B/Victoria-lineage NA K360E, D432G or H273Y, ref WHO-AVWG NAI substitution table) of the same molecule?
**A.** Its value is “RI (type B viruses 5- to 50-fold)”.

**Q.** With `CC(=O)N[C@H]1[C@H]([C@H](O)[C@H](O)CO)OC(C(=O)O)=C[C@@H]1N=C(N)N` [Zanamivir] as the molecule, how does the “inhibition phenotype associated” value [4, 9] read?
**A.** The value was “RI (type B viruses 5- to 50-fold)”.

**Q.** What about the “inhibition phenotype associated” value [4, 10] of the same molecule?
**A.** The value was “RI (type B viruses 5- to 50-fold)”.

**Q.** For `O=C1c2c(O)c(=O)ccn2N([C@@H]2c3ccccc3SCc3c2ccc(F)c3F)[C@@H]2COCCN12` [baloxavir, Baloxavir], which “alleviation of symptoms faster than placebo” value (uncomplicated influenza [5]) is on record?
**A.** Its value is 26.5 h.

**Q.** For `NC(=O)c1nc(F)c[nH]c1=O` [favipiravir, Favipiravir], which “reduction of median time to alleviation of symptoms compared to placebo” value (uncomplicated influenza [6]) is on record?
**A.** Its value is 6 to 14 h.

**Q.** Which “median improvement in alleviation of influenza symptoms” value (influenza [7]; enrolled within 48 h of symptom onset, p = 0.0084) does the source give for `CC(=O)Oc1ccccc1C(=O)Nc1ncc([N+](=O)[O-])s1` [nitazoxanide, Nitazoxanide] here?
**A.** The value was 22 h.

**Q.** What about the virus shedding (influenza [7]; p = 0.0006) of the same molecule?
**A.** Its virus shedding is “significant reduction”.

**Q.** And the “tolerability, adverse events” value [8]?
**A.** Its value is “well tolerated”.

**Q.** What about the “improvement in median time to alleviation of symptoms” value (influenza [3]) of the same molecule?
**A.** Its value is 50 h.
